Data taken from patent US6596726B1, “Tricyclic compounds capable of inhibiting tyrosine kinases of the epidermal growth factor receptor family” (Warner Lambert Company, priority 1994, dated 2003).
Counter-ions that a name gives are not always drawn. Like-named read-outs stand apart in the source and are kept apart here.

Legend:
[1] = target: T1, Human EGF receptor tyrosine kinase (Homo sapiens, UniProt P00533); assay: EGF receptor tyrosine kinase inhibition (phosphorylation of PLC-gamma 1 derived peptide); assay type: biochemical
T1 construct: Human EGF receptor tyrosine kinase was isolated from A431 human epidermoid carcinoma cells which overexpress EGF receptor; endogenous in cells; host or cells: A431 human epidermoid carcinoma cells; purified on wheat germ agglutinin sepharose
Protocol: Purification of Epidermal Growth Factor Receptor Tyrosine Kinase—Human EGF receptor tyrosine kinase was isolated from A431 human epidermoid carcinoma cells which overexpress EGF receptor by the following methods. Cells were grown in roller bottles in 50% Delbuco's Modified Eagle and 50% HAM F-12 nutrient media (Gibco) containing 10% fetal calf serum. Approximately 10^9 cells were lysed in two volumes of buffer containing 20 mM 2-(4N-[2-hydroxyethyl]piperazin-1-yl)ethanesulfonic acid (hepes), pH 7.4, 5 mM ethylene glycol bis(2-aminoethyl ether) N,N,N′,N′-tetraacetic acid, 1% Triton X-100, 10% glycerol, 0.1 mM sodium orthovanadate, 5 mM sodium fluoride, 4 mM pyrophosphate, 4 mM benzamide, 1 mM dithiothreitol, 80 μg/mL aprotinin, 40 μg/mL leupeptin and 1 mM phenylmethylsulfonyl fluoride. After centrifugation at 25,000×g for 10 minutes, the supernatant was equilibrated for 2 h at 4° C. with 10 mL of wheat germ agglutinin sepharose that was previously equilibrated with 50 mM Hepes, 10% glycerol, 0.1% Triton X-100 and 150 mM NaCl, pH 7.5, (equilibration buffer). Contaminating proteins were washed from the resin with 1 M NaCl in equilibration buffer, and the enzyme was eluted with 0.5 M N-acetyl-1-D-glucosamine in equilibration buffer, followed by 1 mM urea. The enzyme was eluted with 0.1 mg/ml EGF.
The reaction was terminated by the addition of 2 mL of 75 mM phosphoric acid and passed through a 2.5 cm phosphocellulose filter disc to bind the peptide. The filter was washed five times with 75 mM phosphoric acid and placed in a vial along with 5 mL of scintillation fluid (Ready gel Beckman).

[2] = target: T2, EGF receptor autophosphorylation in A431 human epidermoid carcinoma cells (Homo sapiens, UniProt P00533); assay: Inhibition of EGF-induced autophosphorylation in A431 epidermoid carcinoma cells; assay type: cell-based
T2 construct: endogenous in cells; host or cells: A431 human epidermoid carcinoma cells (ATCC)
Protocol: Cells were grown to 100% confluency in 100 mm Petrie dishes (Corning). After the cells were treated for 5 minutes with either EGF (epidermal growth factor), PDGF, or bFGF (basic fibroblast growth factor) (20 ng/ml) or 1 ml of conditioned media from MDA-MB-231 cells, the media was removed and the monolayer scraped into 1 ml of ice cold lysis buffer (50 mM Hepes, pH 7.5, 150 mM NaCl, 10% glycerol, 1% triton X-100, 1 mM EDTA, 1 mM EGTA, 10 mM sodium pyrophosphate, 30 mM p-nitrophenyl phosphate, 1 mM orthovanadate, 50 mM sodium fluoride, 1 mM phenylmethylsulfonylfluoride, 10 μg/ml of aprotinin, and 10 μg/ml of leupeptin). The lysate was transferred to a microfuge tube (small centrifuge that holds 1-2 ml plastic centrifuge tubes), allowed to sit on ice 15 minutes and centrifuged 5 minutes at 10,000×g. The supernatant was transferred to a clean microfuge tube and 5 μg of antibody was added to designated samples. The tubes were rotated for 2 hours at 4° C. after which 25 μl of protein A sepharose was added and then rotation continued for at least 2 more hours. The protein A separose was washed 5 times with 50 mM Hepes, pH 7.5, 150 mM NaCl, 10% glycerol and 0.02% sodium azide. […] The extract were transferred to a microfuge tube and heated to 100° C. for 5 minutes. […] Proteins in the gel were electrophoretically transferred to nitrocellulose and the membrane was washed once in 10 mM Tris buffer, pH 7.2, 150 mM NaCl, 0.01% Azide (TNA) and blocked overnight in TNA containing 5% bovine serum albumin and 1% ovalbumin (blocking buffer). The membrane was blotted for 2 hours with the primary antibody (1 μg/ml in blocking buffer) and then washed 2 times sequentially in TNA, TNA containing 0.05% Tween-20 and 0.05% Nonidet P-40 (commercially available detergent) and TNA.
(§1) Inhibition of EGF-Induced Autophosphorylation in A431 Epidermoid Carcinoma Cells and Conditioned Media-Induced Autophosphorylation in SK-BR-3 Breast Tumor Cells by Compounds of the Current Invention
The numbers to the left of gels indicate the positions of molecular weight standards in kiloDaltons.

[3] = tested on: erbB-2, 3, 4 autophosphorylation in SK-BR-3 breast tumor cells; assay: Inhibition of conditioned media-induced autophosphorylation in SK-BR-3 breast tumor cells; assay type: cell-based, human; conditions: SK-BR-3 cells, read-out: SKBR-3 IC50
Protocol: Cells were grown to 100% confluency in 100 mm Petrie dishes (Corning). After the cells were treated for 5 minutes with either EGF (epidermal growth factor), PDGF, or bFGF (basic fibroblast growth factor) (20 ng/ml) or 1 ml of conditioned media from MDA-MB-231 cells, the media was removed and the monolayer scraped into 1 ml of ice cold lysis buffer (50 mM Hepes, pH 7.5, 150 mM NaCl, 10% glycerol, 1% triton X-100, 1 mM EDTA, 1 mM EGTA, 10 mM sodium pyrophosphate, 30 mM p-nitrophenyl phosphate, 1 mM orthovanadate, 50 mM sodium fluoride, 1 mM phenylmethylsulfonylfluoride, 10 μg/ml of aprotinin, and 10 μg/ml of leupeptin). The lysate was transferred to a microfuge tube (small centrifuge that holds 1-2 ml plastic centrifuge tubes), allowed to sit on ice 15 minutes and centrifuged 5 minutes at 10,000×g. The supernatant was transferred to a clean microfuge tube and 5 μg of antibody was added to designated samples. The tubes were rotated for 2 hours at 4° C. after which 25 μl of protein A sepharose was added and then rotation continued for at least 2 more hours. The protein A separose was washed 5 times with 50 mM Hepes, pH 7.5, 150 mM NaCl, 10% glycerol and 0.02% sodium azide. The precipitates were resuspended with 30 μl of Laemlli buffer (Laemmli, NATURE, […], pp. 680-685, 1970), heated to 100° C. for 5 minutes and centrifuged to obtain the supernatant. Whole cell extracts were made by scraping cells grown in the wells of 6 well plates into 0.2 ml of boiling Laemmli buffer. The extract were transferred to a microfuge tube and heated to 100° C. for 5 minutes. The entire supernatant from the immunoprecipitation or 35 μl of the whole cell extract was loaded onto a polyacrylamide gel (4-20%) and electrophoresis carried out by the method of Laemlli (Laemmli, 1970). Proteins in the gel were electrophoretically transferred to nitrocellulose and the membrane was washed once in 10 mM Tris buffer, pH 7.2, 150 mM NaCl, 0.01% Azide (TNA) and blocked overnight in TNA containing 5% bovine serum albumin and 1% ovalbumin (blocking buffer). The membrane was blotted for 2 hours with the primary antibody (1 μg/ml in blocking buffer) and then washed 2 times sequentially in TNA, TNA containing 0.05% Tween-20 and 0.05% Nonidet P-40 (commercially available detergent) and TNA. The membranes were then incubated for 2 hours in blocking buffer containing 0.1 μCi/ml of [^125I] protein A and then washed again as above. After the blots were dry they were loaded into a film cassette and exposed to X-AR X-ray film for 1-7 days. Protein A is a bacterial protein that specifically bonds certain IgG subtypes and is useful in binding to and isolating antibody-antigen complexes.
as §1

[4] = tested on: B104-1-1 NIH-3T3 mouse fibroblasts transfected by the neu oncogene; assay: Growth inhibition assay (antiproliferative), B104-1-1; assay type: cell-based; conditions: 72 h, B104-1-1 cells, 3 days
From the text: Antiproliferative Properties of Tyrosine Kinase Inhibitors IC50 (nM)
B104-1-1—NIH-3T3 mouse fibroblasts transfected by the neu oncogene: Stern et al., Science, 234, pp. 321-324 (1987);

[5] = EGF Receptor Tyrosine Kinase Inhibition, Table 1, values in nM, read-out: IC50 in EGFR
[6] = enzyme value repeated in the autophosphorylation table, read-out: EGFR IC50

“4-(3-Bromoanilino)imidazolo[4,5-h]quinazoline hydrochloride [Example 11]” showed an IC50 ([1]; read-out: IC50 in EGFR) of 272 nM.
“4-(3-Bromoanilino)triazolo[4,5-g]quinazoline hydrochloride [Example 7]” showed an IC50 [1, 5] of 4.1 nM.
For Brc1cccc(Nc2ncnc3cc4ccccc4cc23)c1 [Example 1, 4-(3-bromoanilino)benzo[q]quinazoline hydrochloride], the IC50 [2] was 17 nM, the IC50 [1] was under 0.1 nM and the IC50 ([1]; read-out: EGFR IC50 nM) was under 0.1 nM.
Work on C[C@@H](Nc1ncnc2cc3ccccc3cc12)c1ccccc1 [Example 2, 4-([R]-1-Phenylethylamino)benzo[g]quinazoline hydrochloride] yielded an IC50 [1, 5] of 21 nM.
With Brc1cccc(Nc2ncnc3cc4[nH]ccc4cc23)c1 [Example 3, 4-(3-Bromoanilino)pyrrolo[3,2-g]quinazoline] the IC50 [1] was 0.76 nM.
Compound Brc1cccc(Nc2ncnc3cc4ncoc4cc23)c1 [Example 5] has an IC50 ([1]; EGF Receptor Tyrosine Kinase Inhibition, Table 1, values in pM, read-out: IC50 in EGFR) of 0.075 nM.
Cn1cnc2cc3c(Nc4cccc(Br)c4)ncnc3cc21 [Example 8, 4-(3-Bromoanilino)-8,N-methylimidazolo[4,5-g]quinazoline] gave an IC50 [3] of 10 nM.
Cn1cnc2cc3ncnc(Nc4cccc(Br)c4)c3cc21 [Example 9, 4-(3-Bromoanilino)-6,N-methylimidazolo[4,5-g]quinazoline] gave an IC50 [1] of about 0.01 nM.
Work on Brc1cccc(Nc2ncnc3cc4nccnc4cc23)c1 [Example 10, 4-(3-Bromoanilino)pyrazino[2,3-g]quinazoline] yielded an IC50 [2] of 31 nM, an IC50 ([1]; read-out: EGFR IC50) of 1.7 nM and an IC50 ([1]; read-out: IC50 in EGFR) of 1.7 nM. The IC50 [3] was about 700 nM.
Compound C[C@@H](Nc1ncnc2c1sc1ccccc12)c1ccccc1 [Example 14, 4-([R]-1-Phenylethylamino)benzothieno[3,2-d]pyrimidine] has an IC50 [1, 5] of 538 nM.
Brc1cccc(Nc2ncnc3c2sc2ccccc23)c1 [Example 15, 4-(3-Bromoanilino)benzothieno[3,2-d]pyrimidine] was tested, and the IC50 [2] was 170 nM, the IC50 [1, 5] was 1.8 nM and the IC50 [1, 6] was 1.8 nM.
For O=[N+]([O-])c1ccc2sc3c(Nc4cccc(Br)c4)ncnc3c2c1 [Example 16, 4-(3-Bromoanilino)-8-nitrobenzo[b]thieno[3,2-d]pyrimidine], the IC50 [1, 5] was 12.3 nM.
Work on Nc1ccc2sc3c(Nc4cccc(Br)c4)ncnc3c2c1 [Example 17, 8-Amino-4-(3-bromoanilino)benzo[b]thieno[3,2-d]pyrimidine] yielded an IC50 [3] of 23 nM and an IC50 [4] of 2900 nM.
In the case of COc1cccc2sc3c(Nc4cccc(Br)c4)ncnc3c12.Cl [Example 18, 4-(3-Bromoanilino)-9-methoxybenzo[b]thieno[3,2-d]pyrimidine hydrochloride.], the “EGFR inhibition at fixed concentration” value ([1]; @ 10 nM) is reported as 36% @ 10.
For Brc1cccc(Nc2ncnc3c2sc2ncsc23)c1 [Example 19, 4-(3-Bromoanilino)thiazolo[4′,5′; 4,5]thieno[3,2-d]pyrimidine], the IC50 [3] was about 1500 nM.
Clc1cccc(Nc2ncnc3c2sc2ncccc23)c1 [Example 20, 4-(3-Chloroanilino)pyrido[3′, 2′:4,5]thieno[3,2-d]pyrimidine] was tested, and the IC50 ([1]; EGF Receptor Tyrosine Kinase Inhibition, Table 1, values printed in μM, read-out: IC50 in EGFR) was 1300 nM.
Brc1cccc(Nc2ncnc3c2sc2ncccc23)c1 [Example 21, 4-(3-bromoanilino)pyrido[3′, 2′; 4,5]thieno[3,2-d]pyrimidine] showed an IC50 [1] of 732 nM.
For c1ccc(CNc2ncnc3c2[nH]c2ccccc23)cc1 [Example 23, 4-Benzylaminoindolo[3,2-d]pyrimidine], the IC50 [1, 5] was 460 nM.
Brc1cccc(Nc2ncnc3c2[nH]c2ccccc23)c1 [Example 25, 4-(3-Bromoanilino)indolo[3,2-d]pyrimidine hydrochloride] showed an IC50 [3] of 1000 nM.
c1ccc(Nc2ncnc3[nH]c4ccccc4c23)cc1 [Example 27, 4-Anilinoindolo[2,3-d]pyrimidine] gave an IC50 [1, 5] of 264 nM.
Compound Brc1cccc(Nc2ncnc3[nH]c4ccccc4c23)c1 [Example 28, 4-(3-Bromoanilino)indolo[2,3-d]pyrimidine hydrochloride] has an IC50 [2] of 630 nM, an IC50 [1, 5] of 31 nM and an IC50 [1, 6] of 31 nM. For the same compound, the IC50 [3] was 10 nM.
Cn1c2ccccc2c2c(Nc3cccc(Br)c3)ncnc21 [Example 29, 4-(3-Bromoanilino)-9,N-methylindolo[2,3-d]pyrimidine.] showed an IC50 [2] of 109 nM, an IC50 [1, 5] of 732 nM and an IC50 [3] of 1100 nM.
COc1ccc2[nH]c3ncnc(Nc4cccc(Br)c4)c3c2c1 [Example 31, 4-(3-Bromoanilino)6-methoxyindolo[2,3-d]pyrimidine] was tested, and the IC50 [1] was 220 nM.
Nc1nc(Nc2cccc(Br)c2)c2c(n1)[nH]c1ccccc12 [Example 32, 2-Amino-4-(3-bromoanilino)pyrimido[2,3-d]indole] was tested, and the IC50 [1, 5] was 160 nM.
Compound Brc1cccc(Nc2ncnc3c2oc2ccccc23)c1 [Example 34, 4-(3-Bromoanilino)benzofurano[3,2-d]pyrimidine] has an IC50 [1] of 740 nM.
